Measurements as given in paper PMC7914897, “Cytotoxic Potential of a-Azepano- and 3-Amino-3,4-SeCo-Triterpenoids” (International Journal of Molecular Sciences, 2021).

Experiments:
[1] = system: MCF7 (Breast cancer); assay: NCI-60 screen (SRB, 48 h); settings: Homo sapiens
[2] = system: SF-539 (CNS cancer); assay: NCI-60 screen (SRB, 48 h); settings: Homo sapiens
[3] = system: MALME-3M (Melanoma); assay: NCI-60 screen (SRB, 48 h); settings: Homo sapiens
[4] = system: A375 (malignant melanoma); assay: SRB cytotoxicity assay, 72 h; format: cell-based, human; settings: A375, 72 h, cut-off 30 µM
Procedure, shortened: (§1)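 Cytotoxicity is measured colorimetrically with sulforhodamine B after 72 h exposure to compound concentrations of 0–30 µM, added 24 h after seeding of exponentially growing cells. Survival relative to untreated wells yields EC50.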

[5] = system: HT29 (colorectal carcinoma); assay: SRB cytotoxicity assay, 72 h; format: cell-based, human; settings: HT29, 72 h, cut-off 30 µM
Procedure, shortened: as §1

[6] = system: A2780 (ovarian carcinoma); assay: SRB cytotoxicity assay, 72 h; format: cell-based, human; settings: A2780, 72 h, cut-off 30 µM
Procedure, shortened: as §1

[7] = system: FaDu (hypopharyngeal carcinoma); assay: SRB cytotoxicity assay, 72 h; format: cell-based, human; settings: cut-off 30 µM
Procedure, shortened: as §1

[8] = system: MCF-7 (breast carcinoma); assay: SRB cytotoxicity assay, 72 h; format: cell-based, human; settings: MCF-7, 72 h, cut-off 30 µM
Procedure, shortened: as §1

[9] = system: Prostate cancer subpanel; assay: NCI-60 screen, subpanel; settings: Homo sapiens
[10] = system: SK-MEL-2 (Melanoma); assay: NCI-60 screen (SRB, 48 h); settings: Homo sapiens
[11] = system: BT-549 (Breast cancer); assay: NCI-60 screen (SRB, 48 h); format: cell-based; settings: Homo sapiens
[12] = system: SF-295 (CNS cancer); assay: NCI-60 screen (SRB, 48 h); settings: Homo sapiens
[13] = system: UO-31 (Renal cancer); assay: NCI-60 screen (SRB, 48 h); settings: Homo sapiens
[14] = system: CCRF-CEM (Leukemia); assay: NCI-60 screen (SRB, 48 h); settings: Homo sapiens
[15] = system: A498 (Renal cancer); assay: NCI-60 screen (SRB, 48 h); settings: Homo sapiens
[16] = system: SN12C (Renal cancer); assay: NCI-60 screen (SRB, 48 h); settings: Homo sapiens
[17] = system: CNS cancer subpanel; assay: NCI-60 screen, subpanel; settings: Homo sapiens
[18] = system: NIH 3T3 (non-malignant mouse fibroblasts); assay: SRB cytotoxicity assay, 72 h; format: cell-based; settings: NIH 3T3, 72 h, cut-off 30 µM
Procedure, shortened: as §1

[19] = system: HCT-116 (Colon cancer); assay: NCI-60 screen (SRB, 48 h); settings: Homo sapiens
[20] = system: K-562 (Leukemia); assay: NCI-60 screen (SRB, 48 h); settings: Homo sapiens
[21] = system: Melanoma subpanel; assay: NCI-60 screen, subpanel; settings: Homo sapiens
[22] = system: HT29 (Colon cancer); assay: NCI-60 screen (SRB, 48 h); settings: Homo sapiens
[23] = system: NSC lung cancer subpanel; assay: NCI-60 screen, subpanel; settings: Homo sapiens
[24] = system: MDA-MB-435 (Melanoma); assay: NCI-60 screen (SRB, 48 h); format: cell-based; settings: Homo sapiens
[25] = system: KM12 (Colon cancer); assay: NCI-60 screen (SRB, 48 h); settings: Homo sapiens

CC1(C)CC[C@]2(CO)CC[C@]3(C)C(=CC[C@@H]4[C@@]5(C)CCCNC(C)(C)[C@@H]5CC[C@]43C)[C@@H]2C1 [Compound 3, azepanoerythrodiol]
GI50 ([1]; MCF7): 2.16 µM | IC (TGI) ([1]; MCF7, 48 h, read-out: TGI): 5.54 µM | CC50 ([1]; MCF7, read-out: LC50): 22.7 µM | GI50 ([2]; SF-539): 11 µM | IC (TGI) ([2]; SF-539, 48 h, read-out: TGI): 2.41 µM | CC50 ([2]; SF-539, read-out: LC50): 52.7 µM | GI50 [3]: 2.02 µM | IC (TGI) ([3]; 48 h, read-out: TGI): 3.56 µM | CC50 ([3]; read-out: LC50): 6.27 µM | EC50 [4]: n.s. | EC50 [5]: n.s. | EC50 [6]: n.s. | EC50 [7]: n.s. | EC50 [8]: n.s. | IC (TGI) ([9]; 48 h, read-out: TGI MG_MID): 4.02 µM | GI50 ([9]; read-out: GI50 MG_MID): 1.89 µM | CC50 ([9]; read-out: LC50 MG_MID): 8.54 µM | GI50 ([10]; SK-MEL-2): 3.25 µM | IC (TGI) ([10]; SK-MEL-2, 48 h, read-out: TGI): 8.17 µM | CC50 ([10]; SK-MEL-2, read-out: LC50): 36.7 µM | GI50 ([11]; BT-549): 1.01 µM | IC (TGI) ([11]; BT-549, 48 h): 24.5 µM | CC50 ([11]; BT-549, read-out: LC50 (the source's name)): 59.2 µM | GI50 ([12]; SF-295): 1.77 µM | IC (TGI) ([12]; SF-295, 48 h, read-out: TGI): 3.62 µM | CC50 ([12]; SF-295, read-out: LC50): 7.4 µM | GI50 ([13]; UO-31): 10.5 µM | IC (TGI) ([13]; UO-31, 48 h, read-out: TGI): 25.5 µM | CC50 ([13]; UO-31, read-out: LC50): 62.1 µM | GI50 [14]: 2.41 µM | IC (TGI) ([14]; 48 h, read-out: TGI): 8.96 µM | CC50 ([14]; read-out: LC50): > 100 µM | GI50 ([15]; A498): 16.7 µM | IC (TGI) ([15]; A498, 48 h, read-out: TGI): 38.1 µM | CC50 ([15]; A498, read-out: LC50): 86.7 µM | GI50 [16]: 4.02 µM | IC (TGI) ([16]; 48 h, read-out: TGI): 16.8 µM | CC50 ([16]; read-out: LC50): 45.6 µM | IC (TGI) ([17]; 48 h, read-out: TGI MG_MID): 4.13 µM | GI50 ([17]; read-out: GI50 MG_MID): 6.53 µM | CC50 ([17]; read-out: LC50 MG_MID): 40 µM | EC50 [18]: n.s. | GI50 ([19]; HCT-116): 1.64 µM | activity at 10 µM ([19]; HCT-116, 48 h, read-out: Growth % of the Most Sensitive Cell Lines): -85.8% | IC (TGI) ([19]; HCT-116, 48 h, read-out: TGI): 3.11 µM | CC50 ([19]; HCT-116, read-out: LC50): 5.92 µM | GI50 ([20]; K562): 0.4 µM | IC (TGI) ([20]; K562, 48 h, read-out: TGI): > 100 µM | CC50 ([20]; K562, read-out: LC50): > 100 µM | IC (TGI) ([21]; 48 h, read-out: TGI MG_MID): 4.31 µM | GI50 ([21]; read-out: GI50 MG_MID): 2.05 µM | CC50 ([21]; read-out: LC50 MG_MID): 12.2 µM | GI50 ([22]; HT-29): 1.59 µM | IC (TGI) ([22]; HT-29, 48 h, read-out: TGI): 3.62 µM | CC50 ([22]; HT-29, read-out: LC50): 8.23 µM | IC (TGI) ([23]; 48 h, read-out: TGI MG_MID): 17.8 µM | GI50 ([23]; read-out: GI50 MG_MID): 2.87 µM | CC50 ([23]; read-out: LC50 MG_MID): 44.1 µM | GI50 ([24]; MDA-MB-435): 1.71 µM | IC (TGI) ([24]; MDA-MB-435, 48 h, read-out: TGI): 3.36 µM | CC50 ([24]; MDA-MB-435, read-out: LC50 (the source's name)): 6.59 µM | GI50 ([25]; KM12): 2.07 µM | IC (TGI) ([25]; KM12, 48 h, read-out: TGI): 4.26 µM | CC50 ([25]; KM12, read-out: LC50): 8.78 µM
